In patent US11679097B2, “Combination product containing limonoid compound and biguanide compound” (ZHEJIANG YANGSHENGTANG INSTITUTE OF NATURAL MEDICATION CO., …, priority 2017, dated 2023):

Columns and labels:
Assay type in all cases: in vivo
STZ mice [1] = test: Blood glucose in mouse pancreatic islet β-cell injury model (Example 1); details: STZ ICR mice; single administration 0.02 g/kg per day by gavage, two weeks; 1 h after last administration
Description: Effects of a Limonoid Compound, Metformin or a Combination Thereof on Blood Glucose in a Mouse Pancreatic Islet β-Cell Injury Model In this example, a mouse pancreatic islet β-cell injury model was established by modeling ICR mice with streptozotocin (STZ) (referred to the prior art literature: Li Nan et al., Protective effect of pine pollen on kidney damage in diabetic nephropathy mice, Science and Technology Review, 2014, 32 (4/5): 95-99), and used to complete the evaluation of hypoglycemic effect in animals (this model could simulate pancreatic islet β-cell damage state of type I and type II diabetics). […] Conditions of experimental feeding: ICR mice (20±2 g), aged 6 weeks, purchased from Zhejiang Academy of Medical Sciences, and subjected to experimental feeding after 7 days of preliminary feeding. […] The experimental feed was mouse growth-stable feed (GB […]), and the daily feeding and management of the animals were under the responsibility of the animal security department, which provided the animals with sufficient padding and fresh drinking water daily. Experimental grouping: 15 male mice were randomly selected as the normal control group. […] Gavage doses: the gavage dose was 0.02 g/kg per day for the limonin group, the gavage dose was 0.02 g/kg per day for the isolimonic acid group, the gavage dose was 0.02 g/kg per day for the limonin 17-β-D-glucopyranoside group, the gavage dose of metformin was 0.02 g/kg per day for the metformin group, limonin at a dose of 0.01 g/kg and metformin at a dose of 0.01 g/kg were simultaneously gavaged per day for the limonin/metformin combination group, isolimonic acid at a dose of 0.01 g/kg and metformin at a dose of 0.01 g/kg were simultaneously gavaged per day for the isolimonic acid/metformin combination group, limonin 17-β-D-glucopyranoside at a dose of 0.01 g/kg and metformin at a dose of 0.01 g/kg were simultaneously gavaged per day for the limonin 17-β-D-glucopyranoside/metformin combination group, isolimonic acid 17-β-D-glucopyranoside at a dose of 0.01 g/kg and metformin at a dose of 0.01 g/kg were simultaneously gavaged per day for the isolimonic acid 17-β-D-glucopyranoside/metformin combination group, the gavage volume was 10 mL/kg, and the normal group and the model group were administrated with 10 mL/kg of distilled water. […] SPSS 16.0 software was used for statistical analysis. The data were expressed as mean and standard deviation. The data before and after were analyzed by t-test, and P<0.05 was considered statistically significant.

STZ mice [2] = test: Blood glucose in mouse model of type II diabetes with pancreatic islet damage and obesity (Example 5); details: high-fat diet + STZ ICR mice; single administration 0.5 g/kg per day by gavage, three weeks
Procedure: (§1) It should be noted that the conditions for raising the mice were as follows: the temperature was 23±1° C., the humidity was 55±10%, the lights were turned on between 7 am and 7 pm (the lights were turned off at other time), and the mice were allowed to access to water and feed freely. The experimental feed was mouse growth-stable feed (GB M2118), and the daily feeding and management of the animals were under the responsibility of the animal security department, which provided the animals with sufficient padding and fresh drinking water daily.
SPSS 16.0 software was used for statistical analysis.

ICR mice = test: Body weight, triglycerides and total cholesterol in obesity mouse model (Example 6); details: high-fat feed ICR mice, single administration 0.1 g/kg per day by gavage, two weeks
Description: Effects of a Limonoid Compound, Metformin or a Combination Thereof on Body Weight, Triglycerides, and Total Cholesterol in an Obesity Mouse Model
In this example, ICR mice were used to complete the experiment for evaluation of lipid lowering and weight loss in animals (body weight, serum cholesterol, and serum triglycerides).
In this example, the limonoid compound was nomilin, and a metformin single administration group, nomilin single administration group, and metformin/nomilin combination administration groups (dose A and B groups) were set, respectively.
as §1, with “Conditions of experimental feeding: ICR mice, purchased from the Animal Center of Zhejiang Academy of Medical Sciences, half male and half female, body weight (20±2 g), fed with basic feed provided by the Animal Center of Zhejiang Medical Academy. It” for “It”, “The” for “The experimental feed was mouse growth-stable feed (GB M2118), and the”
The ICR mice were randomly divided into the normal group and the high-fat feed group, according to body weight. The normal group was fed with ordinary feed from the beginning to the end of the experiment.
Gavage dose: nomilin at a dose of 0.1 g/kg was gavaged per day for the nomilin group, metformin at a dose of 0.1 g/kg was gavaged per day for the metformin group, nomilin at a dose of 0.05 g/kg and metformin at a dose of 0.05 g/kg were simultaneously gavaged per day for the combination dose group A, nomilin at a dose of 0.1 g/kg and metformin at a dose of 0.1 g/kg were simultaneously gavaged per day for the combination dose group B, the gavage volume was 10 mL/kg, and the normal group and the model group were administrated with 10 mL/kg of distilled water. Two weeks later, the mice were weighed, blood sampled from orbital cavity, measured to determine serum total cholesterol and triglyceride levels, and the average values of each group were obtained. SPSS 16.0 software was used for statistical analysis. The data were expressed as mean and standard deviation. The data before and after were analyzed by t-test, and P<0.05 was considered statistically significant.

**Q.** For CN(C)C(=N)NC(=N)N [Metformin, N,N-dimethylimidodicarbonimidic diamide, reference compound], which Blood glucose value (STZ mice [1]) is on record?
**A.** 22.6 ± 3.9 mmol/L

**Q.** What about the Blood glucose value (STZ mice [2]) of the same compound?
**A.** 17.9 ± 3.6 mmol/L

**Q.** And the “Body weight gaining rate” value (ICR mice)?
**A.** 11.56%

**Q.** What about the Total cholesterol (ICR mice; serum) of the same compound?
**A.** 3.35 ± 0.07 mmol/L

**Q.** And the Triglycerides (ICR mice; serum)?
**A.** 1.17 ± 0.30 mmol/L
